Literature values as cited in patent US6469069B1, “Propofol composition containing sulfite” (Gensia Sicor Pharmaceuticals, Inc., priority 1998, dated 2002).

System: likely microbial contaminants
Conditions: 1% Diprivan (Zeneca) 0.1% Na2S2O5

## O=S([O-])S(=O)(=O)[O-].[Na+].[Na+] [sodium metabisulfite, Sodium metabisulfite]
  Preservative effect in propofol emulsion (in words): completely ineffectual
